Data from patent publication US9278922B2 (ABBVIE INC., priority 2009, dated 2016).
pEC50: −log10 of the molar value.

Each molecule was assayed on HCV 1b-Con-1 replicon (assay: HCV 1b-Con-1 replicon assay (luciferase reporter gene, HuH-7 cells)). Details: Hepatitis C virus, Huh-7, luciferase reporter gene activity in the replicon, in the presence of 5% FBS.
Format: cell-based, Hepatitis C virus (HCV) genotype 1b-Con1

Row | SMILES | pEC50
1 | COC(=O)N[C@H](C(=O)N1CCC[C@H]1C(=O)Nc1ccc(CN(Cc2ccc(NC(=O)[C@@H]3CCCN3C(=O)[C@H](N)c3ccccc3)cc2)c2ccccc2)cc1)C(C)(C)C [Example 77, N-(methoxycarbonyl)-3-methyl-L-valyl-N-[4-({[4-({1-[(2R)-2-amino-2-phenylacetyl]-L-proly}amino)benzyl](phenyl)amino}methyl)phenyl]-L-prolinamide] | > 9.00
2 | CCN(CC)[C@@H](C(=O)N1CCC[C@H]1C(=O)Nc1ccc(CN(Cc2ccc(NC(=O)[C@@H]3CCCN3C(=O)[C@@H](c3ccccc3)N(CC)CC)cc2)c2ccc(F)cc2)cc1)c1ccccc1 [Example 54, (2S,2′S)-N,N-{[(4-fluorophenyl)imino]bis(methanediylbenzene-4,1-diyl)}bis{1-[(2R)-2-(diethylamino)-2-phenylacetyl]pyrrolidine-2-carboxamide}] | > 9.00
3 | COC(=O)N[C@H](C(=O)N1CCCC[C@H]1C(=O)Nc1ccc(CN(Cc2ccc(NC(=O)[C@@H]3CCCCN3C(=O)[C@@H](NC(=O)OC)C(C)(C)C)cc2)c2ccc(F)cc2)cc1)C(C)(C)C [Example 101, methyl [(1S)-1-{[(2S)-2-{[4-({(4-fluorophenyl)[4-({[(2S)-1-{(2S)-2-[(methoxycarbonyl)amino]-3,3-dimethylbutanoyl}piperidin-2-yl]carbonyl}amino)benzyl]amino}methyl)phenyl]carbamoyl}piperidin-1-yl]carbonyl}-2,2-dimethylpropyl]carbamate] | > 9.00
4 | O=C([C@@H](c1ccccc1)N1CCCC1)N1CCC[C@H]1c1nc2cc(CN(Cc3ccc4[nH]c([C@@H]5CCCN5C(=O)[C@@H](c5ccccc5)N5CCCC5)nc4c3)c3ccccc3)ccc2[nH]1 [Example 66, N,N-bis[(2-{(2S)-1-[(2R)-2-phenyl-2-pyrrolidin-1-ylacetyl]pyrrolidin-2-yl}-1H-benzimidazol-5-yl)methyl]aniline] | > 9.00
5 | COC(=O)N[C@H](C(=O)N(C)[C@@H](C)C(=O)Nc1ccc(CN(Cc2ccc(NC(=O)[C@H](C)N(C)C(=O)[C@@H](NC(=O)OC)C(C)(C)C)cc2)c2ccccc2)cc1)C(C)(C)C [Example 47, dimethyl[(phenylimino)bis{methanediylbenzene-4,1-diylimino[(2S)-1-oxopropane-1,2-diyl](methylimino)[(2S)-3,3-dimethyl-1-oxobutane-1,2-diyl]}]biscarbamate] | 8.00 to 9.00
6 | CC(C)C(C(=O)N1CCC[C@H]1C(=O)Nc1ccc(CN(Cc2ccc(NC(=O)[C@@H]3CCCN3C(=O)C(c3ccccc3)C(C)C)cc2)c2ccc(F)cc2)cc1)c1ccccc1 (stereo partly drawn) [Example 108, (2S,2′S)-N,N′-{[(4-fluorophenyl)imino]bis(methanediylbenzene-4,1-diyl)}bis[1-(3-methyl-2-phenylbutanoyl)pyrrolidine-2-carboxamide]] | 8.00 to 9.00
7 | COC(=O)N[C@H](C(=O)N1CCC[C@H]1C(=O)Nc1ccc(CN(Cc2ccc(NC(=O)[C@@H]3CCCN3C(=O)[C@H](NC(=O)OC)c3ccccc3)cc2)c2ccccc2)cc1)C(C)C [Example 70, N-(methoxycarbonyl)-L-valyl-N-(4-{[{4-[(1-{(2R)-2-[(methoxycarbonyl)amino]-2-phenylacetyl}-L-prolyl)amino]benzyl}(phenyl)amino]methyl}phenyl)-L-prolinamide] | > 9.00
8 | CCN[C@@H](C(=O)N1CCC[C@H]1C(=O)Nc1ccc(CN(Cc2ccc(NC(=O)[C@@H]3CCCN3C(=O)[C@H](NCC)c3ccccc3)cc2)c2ccc(F)cc2)cc1)c1ccccc1 [Example 131, (2S,2′S)-N,N′-{[(4-fluorophenyl)imino]bis(methanediylbenzene-4,1-diyl)}bis{1-[(2R)-2-(ethylamino)-2-phenylacetyl]pyrrolidine-2-carboxamide}] | > 9.00
9 | COC(=O)N[C@H](C(=O)N1C[C@@H](O)C[C@H]1C(=O)Nc1ccc(CN(Cc2ccc(NC(=O)[C@@H]3C[C@H](O)CN3C(=O)[C@@H](NC(=O)OC)C(C)(C)C)cc2)c2ccc(F)cc2)cc1)C(C)(C)C [Example 136] | > 9.00
10 | O=C([C@@H](c1ccccc1)N1CCOCC1)N1CCC[C@H]1c1nc2cc(CN(Cc3ccc4[nH]c([C@@H]5CCCN5C(=O)[C@@H](c5ccccc5)N5CCOCC5)nc4c3)c3ccccc3)ccc2[nH]1 [Example 67, N,N-bis[(2-{(2S)-1-[(2R)-2-morpholin-4-yl-2-phenylacetyl]pyrrolidin-2-yl}-1H-benzimidazol-5-yl)methyl]aniline] | > 9.00
11 | COC(=O)N[C@@H]1CCC[C@H]2CC[C@@H](C(=O)Nc3ccc(CN(Cc4ccc(NC(=O)[C@@H]5CC[C@@H]6CCC[C@@H](NC(=O)OC)C(=O)N65)cc4)c4ccccc4)cc3)N2C1=O [Example 63, dimethyl [(phenylimino)bis{methanediylbenzene-4,1-diylcarbamoyl[(3S,6R,9aS)-5-oxooctahydro-1H-pyrrolo[1,2-a]azepine-3,6-diyl]}]biscarbamate] | 7.00 to 8.00
12 | CC(C)(C)[C@@H](C(=O)N1CCC[C@H]1C(=O)Nc1ccc(CN(Cc2ccc(NC(=O)[C@@H]3CCCN3C(=O)[C@@H](N3CCNC3=O)C(C)(C)C)cc2)c2ccccc2)cc1)N1CCNC1=O [Example 31, (2S,2′S)-N,N′-[(phenylimino)bis(methanediylbenzene-4,1-diyl)]bis{1-[(2S)-3,3-dimethyl-2-(2-oxoimidazolidin-1-yl)butanoyl]pyrrolidine-2-carboxamide}] | > 9.00
13 | COC(=O)N[C@H](C(=O)N1CCC[C@H]1C(=O)Nc1ccc(CN(Cc2ccc(NC(=O)[C@@H]3CCCN3C(=O)[C@H](NC(=O)OC(C)(C)C)c3ccccc3)cc2)c2ccccc2)cc1)C(C)(C)C [Example 74, N-(methoxycarbonyl)-3-methyl-L-valyl-N-(4-{[{4-[(1-{(2R)-2-[(tert-butoxycarbonyl)amino]-2-phenylacetyl}-L-prolyl)amino]benzyl}(phenyl)amino]methyl}phenyl)-L-prolinamide] | > 9.00
14 | CCN(C(C)=O)[C@@H](C(=O)N1CCC[C@H]1C(=O)Nc1ccc(CN(Cc2ccc(NC(=O)[C@@H]3CCCN3C(=O)[C@@H](c3ccccc3)N(CC)C(C)=O)cc2)c2ccc(F)cc2)cc1)c1ccccc1 [Example 122, (2S,2′S)-N,N′-{[(4-fluorophenyl)imino]bis(methanediylbenzene-4,1-diyl)}bis(1-{(2R)-2-[acetyl(ethyl)amino]-2-phenylacetyl}pyrrolidine-2-carboxamide)] | 7.00 to 8.00
15 | COC(=O)N[C@H](C(=O)N1CCC[C@H]1C(=O)Nc1ccc(CN(Cc2ccc(NC(=O)[C@@H]3CCCN3C(=O)[C@@H](NC(=O)OC)C(C)(C)C)cc2)c2nccs2)cc1)C(C)(C)C [Example 19] | 7.00 to 8.00
16 | COC(=O)N[C@H](C(=O)N1CCC[C@H]1c1nc2cc(CN(Cc3ccc4[nH]c([C@@H]5CCCN5C(=O)[C@@H](NC(=O)OC)C(C)C)nc4c3)c3ccccc3)ccc2[nH]1)C(C)C [Example 17, Dimethyl (2S,2′S)-1,1′-((2S,2′S)-2,2′-(5,5′-(phenylazanediyl)bis(methylene)bis(1H-benzo[d]imidazole-5,2-diyl))bis(pyrrolidine-2,1-diyl))bis(3-methyl-1-oxobutane-2,1-diyl)dicarbamate] | > 9.00
17 | COC(=O)N[C@@H](CCc1ccccc1)C(=O)N1CCC[C@H]1C(=O)Nc1ccc(CN(Cc2ccc(NC(=O)[C@@H]3CCCN3C(=O)[C@H](CCc3ccccc3)NC(=O)OC)cc2)c2ccccc2)cc1 [Example 91, dimethyl[(phenylimino)bis{methanediylbenzene-4,1-diylcarbamoyl(2S)pyrrolidine-2,1-diyl[(2S)-1-oxo-4-phenylbutane-1,2-diyl]}]biscarbamate] | 8.00 to 9.00
18 | O=C(Nc1ccc(CN(Cc2ccc(NC(=O)[C@@H]3CCCN3C(=O)[C@@H](c3ccccc3)N3CCCCC3)cc2)c2ccc(F)cc2)cc1)[C@@H]1CCCN1C(=O)[C@@H](c1ccccc1)N1CCCCC1 [Example 92, (2S,2′S)-N,N′-{[(4-fluorophenyl)imino]bis(methanediylbenzene-4,1-diyl)}bis{1-[(2R)-2-phenyl-2-piperidin-1-ylacetyl]pyrrolidine-2-carboxamide}] | > 9.00
19 | COC(=O)N[C@H](C(=O)N1C[C@@H]2C[C@@H]2[C@H]1C(=O)Nc1ccc(CN(Cc2ccc(NC(=O)[C@@H]3[C@H]4C[C@H]4CN3C(=O)[C@@H](NC(=O)OC)C(C)(C)C)cc2)c2ccc(F)cc2)cc1)C(C)(C)C [Example 109, methyl [(1S)-1-{[(1S,2S,5R)-2-{[4-({(4-fluorophenyl)[4-({[(1S,2S,5R)-3-{(2S)-2-[(methoxycarbonyl)amino]-3,3-dimethylbutanoyl}-3-azabicyclo[3.1.0]hex-2-yl]carbonyl}amino)benzyl]amino}methyl)phenyl]carbamoyl}-3-azabicyclo[3.1.0]hex-3-yl]carbonyl}-2,2-dimethylpropyl]carbamate] | 7.00 to 8.00
20 | CC(=O)N[C@H](C(=O)N1CCC[C@H]1C(=O)Nc1ccc(CN(Cc2ccc(NC(=O)[C@@H]3CCCN3C(=O)[C@@H](NC(C)=O)C(C)(C)C)cc2)c2ccccc2)cc1)C(C)(C)C [Example 79, (2S,2′S)-N,N′-[(phenylimino)bis(methanediylbenzene-4,1-diyl)]bis {1-[(2S)-2-(acetylamino)-3,3-dimethylbutanoyl]pyrrolidine-2-carboxamide}] | 7.00 to 8.00
21 | CC(C)(C)[C@H](Nc1ncccn1)C(=O)N1CCC[C@H]1C(=O)Nc1ccc(CN(Cc2ccc(NC(=O)[C@@H]3CCCN3C(=O)[C@@H](Nc3ncccn3)C(C)(C)C)cc2)c2ccccc2)cc1 [Example 111, (2S,2′S)-N,N′-[(phenylimino)bis(methanediylbenzene-4,1-diyl)]bis{1-[(2S)-3,3-dimethyl-2-(pyrimidin-2-ylamino)butanoyl]pyrrolidine-2-carboxamide}] | 8.00 to 9.00
22 | O=C(Nc1ccc(CN(Cc2ccc(NC(=O)[C@@H]3CCCN3C(=O)C(c3ccccc3)N3CCC(F)(F)CC3)cc2)c2ccc(F)cc2)cc1)[C@@H]1CCCN1C(=O)C(c1ccccc1)N1CCC(F)(F)CC1 (single isomer, unassigned) [Example 139] | 8.00 to 9.00
23 | COC(=O)N[C@H](C(=O)N1CCC[C@H]1C(=O)Nc1ccc(CN(Cc2ccc(NC(=O)[C@@H]3CCCN3C(=O)[C@@H](NC(=O)OC)C(C)(C)O)cc2)c2ccc(F)cc2)cc1)C(C)(C)O [Example 98, dimethyl ([(4-fluorophenyl)imino]bis{methanediylbenzene-4,1-diylcarbamoyl(25)pyrrolidine-2,1-diyl[(2S)-3-hydroxy-3-methyl-1-oxobutane-1,2-diyl]})biscarbamate] | > 9.00
